Measured values reported in patent US20100305068A1, “COMPOUNDS AND METHODS FOR MODULATING PROTEIN TRAFFICKING” (priority 2006, published 2010).

Tested on: pdr5 ypt1^ts cells
Assay: microbe, parasite or virus in culture
Type: cell-based, yeast
Details: 37° C.; for minimal effective concentration: Saccharomyces cerevisiae, lowest concentration tested giving growth above the 0 μM background, read-out: ypt1-ts MRC (minimal rescue concentration); for minimal effective concentration / optical density, ypt1-ts, 0.39 / optical density, ypt1-ts, 0.78 / optical density, ypt1-ts, 1.56 / optical density, ypt1-ts, 3.13 / optical density, ypt1-ts, 6.25 / optical density, ypt1-ts, 12.5 / optical density, ypt1-ts, 25: Table 2; for optical density, ypt1-ts, 0.39: 0.39 μM compound; for optical density, ypt1-ts, 0.39 / optical density, ypt1-ts, 0.78 / optical density, ypt1-ts, 1.56 / optical density, ypt1-ts, 3.13 / optical density, ypt1-ts, 6.25 / optical density, ypt1-ts, 12.5 / optical density, ypt1-ts, 25: background (0 μM) 0.058; for optical density, ypt1-ts, 0.78: 0.78 μM compound; for optical density, ypt1-ts, 1.56: 1.56 μM compound; for optical density, ypt1-ts, 3.13: 3.13 μM compound; for optical density, ypt1-ts, 6.25: 6.25 μM compound; for optical density, ypt1-ts, 12.5: 12.5 μM compound; for optical density, ypt1-ts, 25: 25 μM compound; for optical density, 3.13 uM / optical density, 12.5 uM / optical density, 50 uM: Table 3, background (0 uM) 0.077; for optical density, 3.13 uM: 3.13 uM compound; for optical density, 12.5 uM: 12.5 uM compound; for optical density, 50 uM: 50 uM compound
Description: The activity of the compounds as modulators of protein trafficking may be measured in the assays described herein that evaluate the ability of a compound to rescue an impairment in protein trafficking. For example, the yeast mutant cell line ypt1^ts can be used to identify compounds that rescue cells from the lethal phenotype of a mutant YPT1 allele (see, e.g., Examples and Schmitt et al. (1988) Cell 53:635-47). The activity may be measured, for example, in a whole yeast cell assay using 384-well screening protocol and an optical density measurement.
The yeast mutant cell line ypt1^ts suppresses, in a temperature dependent fashion, the dominant-lethal phenotype of a mutant YPT1 allele (Schmitt et al. (1988) Cell 53:635-47). ypt1^ts cells grow normally at temperatures up to 30° C., but are growth arrested at 37° C. (Id.).
A library of compounds (“The Spectrum Collection”) obtained from Microsource Discovery Systems, Inc. (Gaylordsville, Conn.) was screened to assess the ability of individual compounds to restore growth of ypt1^ts cells. Screening was carried out using ypt1^ts cells containing a mutation in the pdr5 gene (resulting in inactivation of a membrane efflux pump). The effect of the compounds was measured in pdr5 ypt1^ts cells cultured at 37° C.

| SMILES | minimal effective concentration | optical density, ypt1-ts, 0.39 | optical density, ypt1-ts, 0.78 | optical density, ypt1-ts, 1.56 | optical density, ypt1-ts, 3.13 | optical density, ypt1-ts, 6.25 | optical density, ypt1-ts, 12.5 | optical density, ypt1-ts, 25 | optical density, 3.13 uM | optical density, 12.5 uM | optical density, 50 uM |
| --- | --- | --- | --- | --- | --- | --- | --- | --- | --- | --- | --- |
| CC(=O)c1cc(CC=C(C)C)c(O)c(CC=C(C)C)c1 | 25 µM | 0.085 | 0.077 | 0.082 | 0.108 | 0.096 | 0.112 | 0.195 | – | – | – |
| COc1ccc2c(c1)OCC(Cc1ccc(OC)c(O)c1)C2=O (centres unmarked) | 12.5 µM | 0.099 | 0.068 | 0.085 | 0.101 | 0.125 | 0.319 | 0.62 | – | – | – |
| O=C(/C=C(\O)c1ccccc1)c1ccccc1O [2',beta- DIHYDROXYCHALCONE] | 12.5 µM | 0.083 | 0.072 | 0.076 | 0.096 | 0.124 | 0.31 | 0.551 | – | – | – |
| CCOc1ccc(C(=O)c2ccc(O)c(O)c2O)cc1 [2,3,4-TRIHYDROXY-4'- ETHOX[…]] | 12.5 µM | 0.114 | 0.074 | 0.081 | 0.103 | 0.1 | 0.169 | 0.365 | – | – | – |
| COC(=O)CCCOc1ccc(Cl)cc1Cl [2,4-DICHLORO- PHENOXY- BUTYRIC ACID, METHYL ESTER] | – | – | – | – | – | – | – | – | 0.159 | 0.255 | 0.221 |
| CCOC(=O)C1(O)Oc2cc(OC)cc(OC)c2C(=O)C1c1ccccc1 (centres unmarked) [2-ETHOXY- CARBONYL-2- HYDROXY-5,7- DIMETHOXY- ISOFLAVANONE] | – | – | – | – | – | – | – | – | 0.091 | 0.134 | 0.468 |
| O=c1c2ccccc2oc2ccc(O)cc12 [2-HYDROXY- XANTHONE] | – | – | – | – | – | – | – | – | 0.107 | 0.257 | 0.571 |
| COc1cccc(/C=C/C(=O)O)c1C(C)C [2-ISOPROPYL-3- METHOXYCINNAMIC ACID] | 12.5 µM | 0.097 | 0.079 | 0.086 | 0.111 | 0.123 | 0.184 | 0.397 | – | – | – |
| COc1ccc2oc3ccccc3c(=O)c2c1 [2-METHOXYXANTHONE] | – | 0.093 | 0.069 | 0.083 | 0.094 | 0.108 | 0.128 | 0.221 | – | – | – |
| Cc1[nH]c2ccccc2c1CN(C)C [2-METHYL GRAMINE] | – | – | – | – | – | – | – | – | 0.084 | 0.106 | 0.295 |
| CCCc1occc(=O)c1/C=C/O [2-PROPYL-3- HYDRO[…]-4-ONE] | 25 µM | 0.091 | 0.079 | 0.083 | 0.092 | 0.088 | 0.104 | 0.126 | – | – | – |
| c1ccc2c(Cc3c[nH]c4ccccc34)c[nH]c2c1 [3,3'- DIINDOLYLMETHANE] | 3.13 µM | 0.205 | 0.097 | 0.118 | 0.164 | 0.154 | 0.263 | 0.035 | – | – | – |
| CCOc1cccc(C(=O)c2ccc(O)c(O)c2O)c1 [3,4-DIDESMETHYL-5- DESHYDROXY-3'- ETHOXYSCLEROIN] | 6.25 µM | 0.094 | 0.075 | 0.091 | 0.108 | 0.143 | 0.185 | 0.396 | – | – | – |
| O=c1oc2ccccc2cc1O [3- HYDROXY- COUMARIN] | – | – | – | – | – | – | – | – | 0.083 | 0.109 | 0.299 |
| COC(=O)C[C@H]1C(C)(C)[C@@H](O)[C@@H]2CC3=C4C=C(OC)O[C@@H](c5ccoc5)[C@]4(C)CCC3[C@]1(C)C2=O (stereo partly drawn) [3-DEOXO-3beta-HYDRO[…] 16-ENOL ETHER] | 3.13 µM | 0.102 | 0.077 | 0.091 | 0.141 | 0.219 | 0.583 | 0.625 | – | – | – |
| C=C1[C@H]2CC[C@@]3(C)[C@H](c4ccoc4)OC(=O)C[C@]13O[C@H]1C[C@H](O)C(C)(C)[C@H](CC(=O)OC)[C@]12C [3-DEOXY-3beta- HYDROXY- […] METHYL ESTER] | – | – | – | – | – | – | – | – | 0.384 | 0.641 | 0.621 |
| COc1ccc(C(=O)c2ccccc2)c(O)c1O [3-DESMETHYL- 5-DES- HYDROXY- SCLEROIN] | – | – | – | – | – | – | – | – | 0.11 | 0.149 | 0.556 |
| C[C@]12CC[C@@H](O)C[C@H]1CCc1ccccc12 [3alpha- HYDROXY-4,4- BISNOR- 8,11,13- PODO- […]] | – | – | – | – | – | – | – | – | 0.074 | 0.104 | 0.408 |
| CC(=O)O[C@@H]1CC2C(C)(C)[C@H](O)CC[C@]2(C)C2CC[C@@]3(C)[C@H](c4ccoc4)OC(=O)C4OC43[C@@]21C (stereo partly drawn) [3alpha- HYDROXY- DEOXO- DIHYDRO- GEDUNIN] | – | – | – | – | – | – | – | – | 0.137 | 0.25 | 0.146 |
| C=C1[C@H]2CC[C@@]3(C)[C@H](c4ccoc4)OC(=O)C[C@]13O[C@H]1C[C@@H](O)C(C)(C)[C@H](CC(=O)OC)[C@]12C [3alpha-HYDROXY-3- DEOXY[…] METHYL ESTER2] | 3.13 µM | 0.169 | 0.078 | 0.093 | 0.144 | 0.381 | 0.566 | 0.611 | – | – | – |
| C=C1C2CC[C@@]3(C)[C@H](c4ccoc4)OC(=O)C[C@]13O[C@H]1C[C@H](OC(C)=O)C(C)(C)[C@H](CC(=O)OC)[C@@]21C [3beta- ACETO[…] ACID, METHYL ESTER] | 1.56 µM | 0.129 | 0.096 | 0.133 | 0.374 | 0.538 | 0.571 | 0.553 | – | – | – |
